The values below come from patent US5817677A, “5-membered heterocycles, medicaments containing these compounds, their use and processes for their preparation” (priority 1995, dated 1998).

The structures appear in SMILES notation. Where a name gives a salt, the structure may show the parent alone.

One test relates to platelet aggregation. As to the kind of experiment: Inhibition of collagen-induced platelet aggregation (Born and Cross) in platelet-rich plasma. The class given is cell-based, human (platelet-rich plasma of healthy subjects). The following applies: human platelet-rich plasma, 10 minutes preincubation at 37° C., 50% change in optical density. As for the experimental part:
2. Antithrombotic effect Platelets aggregation is measured by the method of Born and Cross (J. Physiol. 170, 397 (1964)) in platelet-rich plasma of healthy subjects. To inhibit clotting, the blood is treated with sodium citrate, 3.14% in the volume ratio 1:10. Collagen-induced aggregation The course of the decrease in the optical density of the platelet suspension is measured and recorded photometrically after addition of the aggregation-inducing substance. From the angle of inclination of the density curve, the aggregation rate is deduced. The point of the curve at which the greatest light transmission exists is used to calculate the optical density. The amount of collagen is selected to be as low as possible, but in such a way that a reaction curve with an irreversible course results. Commercially available collagen from Hormonchemie, Munich, is used. Before the addition of collagen, the plasma is in each case incubated at 37° C. with the substance for 10 minutes. From the measurements obtained, an EC50 is determined graphically which relates to a 50% change in the optical density in the sense of an inhibition of aggregation.

The test system of the next test is human platelets. As to the kind of experiment: Inhibition of the binding of ^3 H-BIBU 52 to human platelets (fibrinogen binding test). To be noted: ^3 H-BIBU 52 5 nM, human platelet-rich plasma, room temperature, 20 minutes; 50% inhibition of binding. As for the experimental part:
1. Inhibition of the binding of ^3 H-BIBU 52 to human platelets
The free and bound ligand is separated by centrifugation and quantitatively determined by scintillation counting. From the measurements, the inhibition of ^3 H-BIBU 52 binding by the test substance is determined.
For this purpose, donor blood is taken from an anticubital vein and anticoagulated with trisodium citrate (final concentration 13 mM). The blood is centrifuged at 170×g for 10 minutes and the supernatant platelet-rich plasma (PRP) is removed. The remaining blood is intensely centrifuged off once more to obtain plasma. The PRP is diluted 1:10 with autologous plasma. […] are incubated with […] of physiological saline solution, 100 ml of test substance solution, 50 ml of ^14 C-sucrose (3700 Bq) and 50 ml of ^3 H-BIBU-52 (final concentration: 5 nM at room temperature for 20 minutes. To measure the non-specific binding, instead of the test substance 5 ml of BIBU 52 (final concentration: […]) are employed. The samples are centrifuged at 10,000×g for 20 seconds and the supernatant is removed. 100 ml of this are measured to determine the free ligand. The pellet is dissolved in 500 ml of 0.2N NaOH, and 450 ml are treated with 2 ml of scintillator and 25 ml of 5N Hcl and measured. The residual plasma still remaining in the pellet is determined from the ^14 C content, the bound ligand from ^3 H-measurement.

On to `O=C(O)CC[C@H]1CC[C@H](NC(=O)c2cnc(C3CCNCC3)s2)CC1` [4(20), 5-[[trans-4-(2-Carboxyethyl)cyclohexyl]aminocarbonyl]-2-(4-piperidyl)-1,3-thiazole hydrobromide], for which the EC50 in the test on platelet aggregation came out at 120 nM. For the same molecule, the IC50 in the test on human platelets is 63 nM.
In the test with platelet aggregation, `O=C(O)CC[C@H]1CC[C@H](NC(=O)c2cn(C3CCNCC3)cn2)CC1` [Example 4, 4-[[trans-4-(2-Carboxyethyl)cyclohexyl]aminocarbonyl]-1-(4-piperidyl)imidazole dihydrochloride] showed an EC50 of 160 nM. Moreover, the IC50 in the test on human platelets came out at 120 nM.
On the same counts, the results for `O=C(O)COc1ccc(NC(=O)c2nnc(C3CCNCC3)s2)cc1` [4(6), 5-[[4-(Carboxymethoxy)phenyl]aminocarbonyl]-2-(4piperidyl)-1,3,4-thiadiazole hydrochloride] are 170 nM and 64 nM.
In the test on platelet aggregation, `COC(=O)COc1ccc(NC(=O)c2sc(C3CCNCC3)nc2C)cc1` [2(3), 5-[[4-(Methoxycarbonylmethoxy)phenyl]aminocarbonyl]-4-methyl-2-(4-piperidyl)-1,3-thiazole hydrobromide] registered an EC50 of 140 nM. Moreover, the IC50 with human platelets was determined as 300 nM.
In turn, `Cc1nc(C2CCNCC2)sc1C(=O)Nc1ccc(OCC(=O)O)cc1` [4(3), 5-[[4-(Carboxymethoxy)phenyl]aminocarbonyl]-4-methyl-2-(4-piperidyl)-1,3-thiazole hydrobromide] returned an EC50 with platelet aggregation of 130 nM. The molecule further displayed an IC50 with human platelets of 45 nM.
On the same counts, the results for `CS(=O)(=O)N(CC(=O)O)[C@H]1CC[C@H](C(=O)Nc2cn(C3CCNCC3)cn2)CC1` [5(2), 4-[[trans-4-(N-Carboxymethyl-N-methanesulphonylamino)-cyclohexyl]carbonylamino]-1-(4-piperidyl)imidazole dihydrochloride] are 3800 nM and 1600 nM.
Take `O=C(N[C@H]1CC[C@H](C(=O)O)CC1)c1cn(CCC2CCNCC2)cn1` [4(27), 4-[[trans-4-Carboxycyclohexyl]aminocarbonyl]-1-[2-(4-piperidyl)ethyl]imidazole dihydrochloride]: the EC50 with platelet aggregation amounted to 280 nM. Further, the IC50 with human platelets turned out to be 190 nM.
With `O=C(O)CO[C@H]1CC[C@H](NC(=O)c2cnc(C3CCNCC3)s2)CC1` [2(12), 5-[[trans-4-(Carboxymethoxy)cyclohexyl]aminocarbonyl]-2-(4-piperidyl)-1,3-thiazole hydrobromide], the EC50 in the test on platelet aggregation was found to be 140 nM. Further, the IC50 in the test on human platelets was 72 nM.
In turn, `O=C(/C=C/c1cn(C2CCNCC2)cn1)N[C@H]1CC[C@H](C(=O)O)CC1` [4(8), 4-[trans-2-[(trans-4-Carboxycyclohexyl)aminocarbonyl]-ethenyl]-1-(4-piperidyl)imidazole dihydrochloride] displayed an EC50 in the test with platelet aggregation of 1800 nM. Besides, in the test with human platelets, the IC50 was found to be 2500 nM.
On the same counts, the results for `O=C(O)COc1ccc(NC(=O)c2cnc(C3CCNCC3)s2)cc1` [4(19), 5-[[4-(Carboxymethoxy)phenyl]aminocarbonyl]-2-(4-piperidyl)-1,3-thiazole hydrate] are 100 nM and 38 nM.
